# Entries after “also recorded” stand apart in the source; their conditions may differ. Ends that are not written are not given here.
# Test system: CT-26/EV tumours
# Experiment: Syngeneic subcutaneous tumour model, CT-26/EV cells in BALB/c mice
# Format: in vivo, mouse
# Conditions: CT-26/EV (no forced KITENIN overexpression), KDIP 1 mg/kg intravenously alternate days for 14 days
# Method: The CT‐26 cell/syngeneic mouse model was used to investigate the in vivo effects of KDIP on colorectal tumourigenesis, as it is reported that a syngeneic mouse tumour model is good for testing the anticancer effects of candidate substances.[25], [26] Male Balb/c mice (5‐week old) were purchased from DaMul Science, Korea and acclimated for 1 week prior to subcutaneous injection of syngeneic CT‐26/EV (3 × 10^6) or CT‐26/KITENIN cells (1 × 10^6) into the dorsum. Tumour volume was calculated using the following equation: V = 1/2 × a × b […], where a and b are the longest and shortest diameters of the tumour (in millimetres), respectively. Tumour volume was measured every other day for 14 days to verify the effects of KDIP. All mice were sacrificed after Day 30 (Figure 7B), and the subcutaneous tumour grafts were surgically excised and weighed.
# For the experimental tumour model, CT‐26/EV or CT‐26/KITENIN‐V5 cells were injected into the right back of BALB/c mice to form tumours, and KDIP was injected intravenously according to the timeline shown in Figure 7B. Considering the suppressive effect of KDIP on the cell invasion of CT‐26 cells, the initial test dosage was set to 1 mg/kg, which is equivalent to the half‐maximal inhibitory concentration (IC50) of KDIP on cell invasion. […] After 2 weeks of treatment, the mice were sacrificed and the tumours were analysed. […]
sequence,measurement,value
YARVRRRGPRRWRLVSDEAV [KDIP],tumour growth (in words),little effect on tumor growth; also recorded: little effect on tumour growth
